Article PMC2692545 (Biochemical pharmacology, 2009)

Target: C1/C2 + Gsα (VC1:IIC2 plus Gsα-GTPγS) (Canis lupus familiaris; Rattus norvegicus; Bos taurus, UniProt P26769+P30803)
Assay: […]cAMP formation from [α-32P]ATP, stimulation of catalysis
Type: biochemical

C1/C2 + Gsα (VC1:IIC2 plus Gsα-GTPγS), sequence (P30803 442-656): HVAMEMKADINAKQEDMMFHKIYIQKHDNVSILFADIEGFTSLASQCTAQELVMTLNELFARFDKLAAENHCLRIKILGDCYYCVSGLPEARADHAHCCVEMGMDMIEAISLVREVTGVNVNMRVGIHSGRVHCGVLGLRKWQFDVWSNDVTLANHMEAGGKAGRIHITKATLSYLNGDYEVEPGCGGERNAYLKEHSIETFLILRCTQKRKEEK
C1/C2 + Gsα (VC1:IIC2 plus Gsα-GTPγS), sequence (P26769 870-1081): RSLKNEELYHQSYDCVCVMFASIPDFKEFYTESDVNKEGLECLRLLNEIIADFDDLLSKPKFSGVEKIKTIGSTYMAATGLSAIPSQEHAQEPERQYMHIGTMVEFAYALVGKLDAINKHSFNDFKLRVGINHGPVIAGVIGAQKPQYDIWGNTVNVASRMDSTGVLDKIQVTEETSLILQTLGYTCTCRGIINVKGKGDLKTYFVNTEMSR
C1/C2 + Gsα (VC1:IIC2 plus Gsα-GTPγS), sequence (P04896 2-394 partner): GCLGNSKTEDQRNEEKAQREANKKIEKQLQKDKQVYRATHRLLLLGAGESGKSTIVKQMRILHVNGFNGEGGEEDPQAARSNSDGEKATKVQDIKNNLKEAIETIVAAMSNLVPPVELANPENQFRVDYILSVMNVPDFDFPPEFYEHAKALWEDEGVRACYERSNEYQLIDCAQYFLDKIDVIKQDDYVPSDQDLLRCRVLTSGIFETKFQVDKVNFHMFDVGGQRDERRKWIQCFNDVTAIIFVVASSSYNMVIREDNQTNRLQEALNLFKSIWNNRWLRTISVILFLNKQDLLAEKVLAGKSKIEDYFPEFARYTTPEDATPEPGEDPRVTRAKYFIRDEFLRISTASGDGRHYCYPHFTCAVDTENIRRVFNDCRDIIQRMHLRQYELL

EC50 [µM] | Compound
2.6 ± 1 | C=C[C@@]1(C)CC(=O)[C@]2(O)[C@@]3(C)[C@@H](O)CCC(C)(C)[C@@H]3[C@H](OC(C)=O)[C@H](O)[C@@]2(C)O1 [6A7DA-FS]
27.6 ± 7 | C=C[C@@]1(C)CC(=O)[C@]2(O)[C@@]3(C)[C@@H](O)CCC(C)(C)[C@@H]3[C@H](O)[C@H](OC(=O)CCCN3CCN(C)CC3)[C@@]2(C)O1 [DMB-FS]
7.4 ± 1.2 | C=C[C@@]1(C)CC(=O)[C@]2(O)[C@@]3(C)[C@@H](O)CCC(C)(C)[C@@H]3[C@H](O)[C@H](OC(C)=O)[C@@]2(C)O1 [FS]
19.5 ± 0.7 | C=C[C@@]1(C)CC(=O)[C@H]2[C@](C)(O1)[C@@H](OC(C)=O)[C@@H](O)[C@H]1C(C)(C)CC[C@H](O)[C@@]12C [9d-FS]
